Experimental data reported in US20070003585A1, “Topical skin treating compositions” (STIEFEL LABORATORIES, INC., priority 2005, published 2007).
Where two headings read alike, the source gives them in different places.

Columns and labels:
[1] = Example 12 composition, initial […]
[2] = Storage stability of composition containing 5.18% of benzoyl peroxide and 0.099% of tazarotene (Example 18); format: physicochemical; settings: Example 18 composition, initial […]
Source text: (§1) The results are as follows:

[3] = Storage stability of composition containing 2.15% of benzoyl peroxide, […] of tazarotene, and […] of clindamycin (Example 8); format: physicochemical; settings: Example 8 composition, initial […], 6 months
[4] = Example 11 composition, initial […]
[5] = Storage stability of composition containing 2.02% of benzoyl peroxide, […] of tazarotene, and […] of clindamycin (Example 9); format: physicochemical; settings: Example 9 composition, initial […]
[6] = Storage stability of composition containing 0.209% of tazarotene and 2.13% of clindamycin (Example 14); format: physicochemical; settings: Example 14 composition, initial 0.209%
[7] = Storage stability of composition containing […] of tazarotene and […] of clindamycin (Example 16); format: physicochemical; settings: Example 16 composition, initial […], 6 months
[8] = Example 15 composition, initial 0.109%
[9] = Example 7 composition, initial […]
[10] = Example 6 composition, initial […]
[11] = Example 13 composition, initial […]
[12] = Storage stability of composition containing 2.02% of benzoyl peroxide and 0.099% of tazarotene (Example 17); format: physicochemical; settings: Example 17 composition, initial […]
Source text: as §1

Tazarotene (as % w/w) ([1]; 2 weeks, 6° C.): 0.099 % w/w
Tazarotene (as % w/w) ([1]; 2 weeks, 25° C.): 0.090 % w/w
Tazarotene (as % w/w) ([1]; 2 weeks, 30° C.): 0.090 % w/w
Tazarotene (as % w/w) ([1]; 2 weeks, 40° C.): 0.085 % w/w
Tazarotene (as % w/w) ([1]; 6 months, 6° C.): 0.096 % w/w
Tazarotene (as % w/w) ([1]; 6 months, 25° C.): 0.091 % w/w
Tazarotene (as % w/w) ([1]; 6 months, 30° C.): 0.088 % w/w
Tazarotene (as % w/w) ([1]; 6 months, 40° C.): None Detected
Tazarotene (as % w/w) ([1]; 90 days, 6° C.): 0.102 % w/w
Tazarotene (as % w/w) ([1]; 90 days, 25° C.): 0.090 % w/w
Tazarotene (as % w/w) ([1]; 90 days, 30° C.): 0.089 % w/w
Tazarotene (as % w/w) ([1]; 90 days, 40° C.): 0.081 % w/w
Tazarotene (as % w/w) ([2]; 6 months, 6° C.): 0.106 % w/w
Tazarotene (as % w/w) ([2]; 6 months, 25° C.): 0.088 % w/w
Tazarotene (as % w/w) ([2]; 6 months, 30° C.): 0.083 % w/w
Tazarotene (as % w/w) ([2]; 6 months, 40° C.): 0.004 % w/w
Tazarotene (as % w/w) ([2]; 90 days, 6° C.): 0.103 % w/w
Tazarotene (as % w/w) ([2]; 90 days, 25° C.): 0.093 % w/w
Tazarotene (as % w/w) ([2]; 90 days, 30° C.): 0.087 % w/w
Tazarotene (as % w/w) ([2]; 90 days, 40° C.): 0.051 % w/w
Tazarotene (as % w/w) ([3]; 6° C.): 0.099 % w/w
Tazarotene (as % w/w) ([3]; 25° C.): 0.097 % w/w
Tazarotene (as % w/w) ([3]; 30° C.): 0.079 % w/w
Tazarotene (as % w/w) ([3]; 40° C.): 0.057 % w/w
Tazarotene (as % w/w) ([4]; 2 weeks, 6° C.): 0.106 % w/w
Tazarotene (as % w/w) ([4]; 2 weeks, 25° C.): 0.098 % w/w
Tazarotene (as % w/w) ([4]; 2 weeks, 40° C.): 0.089 % w/w
Tazarotene (as % w/w) ([4]; 6 months, 6° C.): 0.107 % w/w
Tazarotene (as % w/w) ([4]; 6 months, 25° C.): 0.093 % w/w
Tazarotene (as % w/w) ([4]; 6 months, 40° C.): 0.014 % w/w
Tazarotene (as % w/w) ([4]; 30 days, 6° C.): 0.105 % w/w
Tazarotene (as % w/w) ([4]; 30 days, 25° C.): 0.094 % w/w
Tazarotene (as % w/w) ([4]; 30 days, 40° C.): 0.084 % w/w
Tazarotene (as % w/w) ([4]; 90 days, 6° C.): 0.106 % w/w
Tazarotene (as % w/w) ([4]; 90 days, 25° C.): 0.093 % w/w
Tazarotene (as % w/w) ([4]; 90 days, 40° C.): 0.086 % w/w
Tazarotene (as % w/w) ([5]; 6 months, 6° C.): 0.104 % w/w
Tazarotene (as % w/w) ([5]; 6 months, 25° C.): 0.089 % w/w
Tazarotene (as % w/w) ([5]; 6 months, 30° C.): 0.089 % w/w
Tazarotene (as % w/w) ([5]; 6 months, 40° C.): 0.003 % w/w
Tazarotene (as % w/w) ([5]; 90 days, 6° C.): 0.103 % w/w
Tazarotene (as % w/w) ([5]; 90 days, 25° C.): 0.092 % w/w
Tazarotene (as % w/w) ([5]; 90 days, 30° C.): 0.090 % w/w
Tazarotene (as % w/w) ([5]; 90 days, 40° C.): 0.071 % w/w
Tazarotene (as % w/w) ([6]; 4 weeks, 25° C.): 0.208 % w/w
Tazarotene (as % w/w) ([6]; 4 weeks, 30° C.): 0.208 % w/w
Tazarotene (as % w/w) ([6]; 4 weeks, 40° C.): 0.205 % w/w
Tazarotene (as % w/w) ([6]; 6 months, 25° C.): 0.206 % w/w
Tazarotene (as % w/w) ([6]; 6 months, 30° C.): 0.206 % w/w
Tazarotene (as % w/w) ([6]; 6 months, 40° C.): 0.205 % w/w
Tazarotene (as % w/w) ([6]; 90 days, 25° C.): 0.204 % w/w
Tazarotene (as % w/w) ([6]; 90 days, 30° C.): 0.208 % w/w
Tazarotene (as % w/w) ([6]; 90 days, 40° C.): 0.208 % w/w
Tazarotene (as % w/w) ([7]; 6° C.): 0.101 % w/w
Tazarotene (as % w/w) ([7]; 25° C.): 0.102 % w/w
Tazarotene (as % w/w) ([7]; 30° C.): 0.104 % w/w
Tazarotene (as % w/w) ([7]; 40° C.): 0.103 % w/w
Tazarotene (as % w/w) ([8]; 60 days, 6° C.): 0.11 % w/w
Tazarotene (as % w/w) ([8]; 60 days, 25° C.): 0.109 % w/w
Tazarotene (as % w/w) ([8]; 60 days, 30° C.): 0.105 % w/w
Tazarotene (as % w/w) ([8]; 60 days, 40° C.): 0.107 % w/w
Tazarotene (as % w/w) ([8]; 90 days, 6° C.): 0.107 % w/w
Tazarotene (as % w/w) ([8]; 90 days, 25° C.): 0.111 % w/w
Tazarotene (as % w/w) ([8]; 90 days, 30° C.): 0.108 % w/w
Tazarotene (as % w/w) ([8]; 90 days, 40° C.): 0.116 % w/w
Tazarotene (as % w/w) ([9]; 2 weeks, 6° C.): 0.104 % w/w
Tazarotene (as % w/w) ([9]; 2 weeks, 25° C.): 0.098 % w/w
Tazarotene (as % w/w) ([9]; 2 weeks, 30° C.): 0.088 % w/w
Tazarotene (as % w/w) ([9]; 2 weeks, 40° C.): 0.080 % w/w
Tazarotene (as % w/w) ([9]; 6 months, 6° C.): 0.106 % w/w
Tazarotene (as % w/w) ([9]; 6 months, 25° C.): 0.090 % w/w
Tazarotene (as % w/w) ([9]; 6 months, 30° C.): 0.082 % w/w
Tazarotene (as % w/w) ([9]; 6 months, 40° C.): 0.046 % w/w
Tazarotene (as % w/w) ([10]; 2 weeks, 25° C.): 0.088 % w/w
Tazarotene (as % w/w) ([10]; 2 weeks, 30° C.): 0.085 % w/w
Tazarotene (as % w/w) ([10]; 2 weeks, 40° C.): 0.081 % w/w
Tazarotene (as % w/w) ([10]; 90 days, 6° C.): 0.094 % w/w
Tazarotene (as % w/w) ([10]; 90 days, 25° C.): 0.090 % w/w
Tazarotene (as % w/w) ([10]; 90 days, 30° C.): 0.085 % w/w
Tazarotene (as % w/w) ([10]; 90 days, 40° C.): 0.078 % w/w
Tazarotene (as % w/w) ([11]; 2 weeks, first temperature column (head not given; 6° C. by analogy)): 0.097 % w/w
Tazarotene (as % w/w) ([11]; 2 weeks, fourth temperature column (head not given; 40° C. by analogy)): 0.081 % w/w
Tazarotene (as % w/w) ([11]; 2 weeks, second temperature column (head not given; 25° C. by analogy)): 0.089 % w/w
Tazarotene (as % w/w) ([11]; 2 weeks, third temperature column (head not given; 30° C. by analogy)): 0.086 % w/w
Tazarotene (as % w/w) ([11]; 6 months, first temperature column (head not given; 6° C. by analogy)): 0.098 % w/w
Tazarotene (as % w/w) ([11]; 6 months, fourth temperature column (head not given; 40° C. by analogy)): None Detected
Tazarotene (as % w/w) ([11]; 6 months, second temperature column (head not given; 25° C. by analogy)): 0.085 % w/w
Tazarotene (as % w/w) ([11]; 6 months, third temperature column (head not given; 30° C. by analogy)): 0.085 % w/w
Tazarotene (as % w/w) ([11]; 90 days, first temperature column (head not given; 6° C. by analogy)): 0.100 % w/w
Tazarotene (as % w/w) ([11]; 90 days, fourth temperature column (head not given; 40° C. by analogy)): 0.079 % w/w
Tazarotene (as % w/w) ([11]; 90 days, second temperature column (head not given; 25° C. by analogy)): 0.090 % w/w
Tazarotene (as % w/w) ([11]; 90 days, third temperature column (head not given; 30° C. by analogy)): 0.087 % w/w
Tazarotene (as % w/w) ([12]; 6 months, 6° C.): 0.108 % w/w
Tazarotene (as % w/w) ([12]; 6 months, 25° C.): 0.081 % w/w
Tazarotene (as % w/w) ([12]; 6 months, 30° C.): 0.070 % w/w
Tazarotene (as % w/w) ([12]; 6 months, 40° C.): 0.009 % w/w
Tazarotene (as % w/w) ([12]; 90 days, 6° C.): 0.106 % w/w
Tazarotene (as % w/w) ([12]; 90 days, 25° C.): 0.088 % w/w
Tazarotene (as % w/w) ([12]; 90 days, 30° C.): 0.085 % w/w
Tazarotene (as % w/w) ([12]; 90 days, 40° C.): 0.044 % w/w
SMILES: CCOC(=O)c1ccc(C#Cc2ccc3c(c2)C(C)(C)CCS3)nc1 [Tazarotene]
